The test system of test [1] is phosphorylation of Tau at S262 in primary cell culture of rat cortical neurons induced by Okadaic acid. Briefly: pTau(S262) Cell Biochemical and Functional Assay. In kind it is cell-based. The following applies: Cortical neurone, Okadaic acid 200 nM, 1.5 hrs, read-out: IC50, inhibition of phosphorylation of Tau at S262. Here is the method: The cell biochemical potency of the below described MARK inhibitors was evaluated by measuring their ability to block the phosphorylation of Tau at S262 in primary cell culture of rat cortical neurons induced by the action of Okadaic acid.
• 1. Store tissue at 4° C. (1-2 days) until ready to use. • 2. When ready to plate, make up 2 mL of enzymatic solution in Hibernate-Ca containing 1× papain. Filter sterile solution with 0.2 μm filter. • 3. Transfer 2 mL of medium from tissue tube into 15 mL falcon tube while not disturbing tissue. Save media. • 4. Add 2 mL enzymatic media (2) to tissue. Incubate for 30′ at 37° C. • 5. Remove enzymatic solution while not disturbing tissue. Add back 1 mL of media from (3). • 6. Using pipettor with sterile plastic tip, triturate ˜10 times until most of the cells are dispersed. • 7. Let undispersed pieces settle by gravity 1 minute. • 8. Transfer dispersed cells (supernatant) into 15 mL falcon tube containing 1 mL media from (3). Gently mix cells by swirling. • 9. Spin cells at 1,100 rpm for 1 minute. Remove supernatant. • 10. Flick tube to loosen cell pellet. Resuspend cells in 5 mL of NB. • 11. Transfer to new 50 mL falcon tube using 40 μm cell strainer. Rinse 15 mL falcon tube with 5 mL media, add to strainer. • 12. Count cells using hemacytometer. • 13. Dilute cells to 7,000 cells/100 μL/well in NB. • 14. Incubate cells at 37° C. with 5% CO2. • a. 4 DIV: Replace ½ volume (50 μL) NB per well. • b. 6 DIV: Neurite Assay. Tissue Culture/Compound Treatment
Primary rat cortical neurons plated @ 6Kcells/well in 384-well black/clear bottom Poly D-Lysine coated BD Falcon Biocoat plates. • Media: Neurobasal+1× B27+2 mM L-Glutamine (+10% FBS) at time of plating
Cells maintained at 37° C. and 5% CO2 for *6 days in culture, w/½ media change every 3-4 days.
Compound treatment: • Prepare first plate: 200× compound in 100% DMSO with subsequent 3 fold serial dilution • Prepare intermediate plate: 1:40 dilution of 200× compound in media (2.5% DMSO) • Add 5× compound to cell in media at 1:5 dilution (0.5% final DMSO) • Incubate for 30 min. at 37° C.
Okadaic Acid (OA) Treatment: • Dilute OA stock (240 μM in 100% DMSO) to 6× final concentration in media (0.5% DMSO) • Add 6× OA to cells at 1:6 dilution (200 nM final). Incubate for 1.5 hrs. at 37° C. Fix and Immunostaining
Fix: 1% PFA, diluted in PBS • Wash 1× with PBS, residual 30 μl/well.
Add 30 μL/well warmed 2% PFA and incubate 30 min. at RT (1% PFA final)
Wash 3× with PBS, 300/well residual […]

Another test concerns the target recombinant MARK3 enzyme (Homo sapiens (Human), UniProt P27448). Nature of the test: MARK 3 Assay (HTRF, Cdc25C biotinylated peptide substrate). In kind it is biochemical. The conditions noted are these: MARK3, 10 μM ATP, 1 μM peptide substrate, 2 hours at 25° C. The protocol: MARK3 activity was assayed in vitro using a Cdc25C biotinylated peptide substrate (Cell Signalling Technologies). The phosphopeptide product was quantitated using a Homogenous Time-Resolved Fluorescence (HTRF) assay system (Park et al., 1999, Anal. Biochem. 269:94-104). The reaction mixture contained 50 mM HEPES/Tris-HCl, pH 7.4; […], 5 mM MgCl2, 0.2 mM NaVO4, 5 mM 3-glycerol phosphate, 0.1% Tween-20, 2 mM dithiothreitol, 0.1% BSA, 10 μM ATP, 1 μM peptide substrate, and 10 nM recombinant MARK3 enzyme (University of Dundee) in a final volume of 12 μL. The buffer additionally contained protease inhibitor cocktail (Roche EDTA-free, 1 tab per 50 ml). The kinase reaction was incubated for 2 hours at 25° C., and then terminated with 3 μl Stop/Detection Buffer (50 mM HEPES, pH 7.0, 16.6 mM EDTA, 0.5M KF, 0.1% Tween-20, 0.1% BSA, 2 μg/ml SLX^ent 665 (CISBIO), and 2 μg/mL Eu^3+ cryptate label antibody (CISBIO)). The reaction was allowed to equilibrate overnight at 0° C., and relative fluorescent units were read on an HTRF enabled plate reader (e.g. TECAN GENios Pro).
Inhibitor compounds were assayed in the reaction described above to determine compound IC50s. Aliquots of compound dissolved in DMSO were added to the reaction wells in a third-log dilution series covering a range of 1 nM to 10 μM. Relative phospho substrate formation, read as HTRF fluorescence units, was measured over the range of compound concentrations and a titration curve generated.
(In general: In TR-FRET formats the signal depends on donor and acceptor labels being close together.)

Structures are written as SMILES. Structures can show the parent of a compound that is named as a salt.

recombinant MARK3 enzyme, sequence (P27448 whole entry, species assumed): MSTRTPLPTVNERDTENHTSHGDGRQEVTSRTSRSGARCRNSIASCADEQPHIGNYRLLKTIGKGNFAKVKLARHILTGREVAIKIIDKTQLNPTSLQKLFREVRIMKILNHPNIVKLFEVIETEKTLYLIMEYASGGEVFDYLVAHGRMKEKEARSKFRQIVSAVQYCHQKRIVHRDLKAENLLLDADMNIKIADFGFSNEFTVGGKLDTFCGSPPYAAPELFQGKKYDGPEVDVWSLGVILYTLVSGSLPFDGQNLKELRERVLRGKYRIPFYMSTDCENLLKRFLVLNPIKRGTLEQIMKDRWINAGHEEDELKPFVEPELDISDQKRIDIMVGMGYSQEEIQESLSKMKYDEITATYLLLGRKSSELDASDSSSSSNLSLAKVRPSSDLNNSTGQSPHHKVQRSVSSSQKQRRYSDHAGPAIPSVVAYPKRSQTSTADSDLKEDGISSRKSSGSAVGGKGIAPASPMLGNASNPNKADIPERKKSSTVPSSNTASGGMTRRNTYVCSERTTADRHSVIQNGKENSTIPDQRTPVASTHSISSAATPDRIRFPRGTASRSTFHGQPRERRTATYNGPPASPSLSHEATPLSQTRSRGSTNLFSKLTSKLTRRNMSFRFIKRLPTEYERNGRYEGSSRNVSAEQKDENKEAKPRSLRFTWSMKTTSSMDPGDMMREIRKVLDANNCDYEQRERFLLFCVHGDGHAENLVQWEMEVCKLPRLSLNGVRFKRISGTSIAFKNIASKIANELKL

With `Cc1sc(C(=O)N[C@H]2CCS(=O)(=O)C[C@H]2N)cc1-c1cnc2cccnn12` (relative stereo) [Example 10, N-[cis-3-amino-1,1-dioxidotetrahydro-2H-thiopyran-4-yl]-4-(imidazo[1,2-b]pyridazin-3-yl)-5-methylthiophene-2-carboxamide], the concentration for half-maximal inhibition (IC50) (in general, the concentration that inhibits the measured activity by half) in test [1] is above 10000 nM.

Regarding `Cc1sc(C(=O)N[C@@H]2[C@H](N)CCCC2(F)F)cc1-c1cnc2cccnn12` [Example 1, N-[(1R,6R)-6-Amino-2,2-difluorocyclohexyl]-4-(imidazo[1,2-b]pyridazin-3-yl)-5-methylthiophene-2-carboxamide], on recombinant MARK3 enzyme, the IC50 was found to be 20 nM. Regarding `N[C@@H]1CCCC(F)(F)[C@@H]1NC(=O)c1cc(-c2cnc3cc(-c4ccc(F)cc4)cnn23)cs1` [Example 8, (1R,2R)-3,3-difluoro-2-[({4-[7-(4-fluorophenyl)imidazo[1,2-b]pyridazin-3-yl]thiophen-2-yl}carbonyl)amino]cyclohex-anaminium trifluoroacetate], the IC50 at recombinant MARK3 enzyme stood at 0.5 nM. For `Cc1sc(C(=O)NC2CS(=O)(=O)CC[C@H]2N)cc1-c1cnc2cccnn12` (stereo partly drawn) [Example 9], the IC50 in test [1] was above 10000 nM.

Turning to `N[C@H]1CCCC(F)(F)[C@@H]1NC(=O)c1cc(-c2cnc3ccccn23)cs1` [Example 14, N-[(1R,6S)-6-amino-2,2-difluorocyclohexyl]-4-(imidazo[1,2-a]pyridin-3-yl)thiophene-2-carboxamide], the IC50 at recombinant MARK3 enzyme came out at 15 nM. Turning to `Cc1sc(C(=O)N[C@@H]2[C@H](N)CCCC2(F)F)cc1-c1cnc2ccccn12` [Example 15, N-[(1R,6R)-6-amino-2,2-difluorocyclohexyl]-4-(imidazo[1,2-a]pyridin-3-yl)-5-methylthiophene-2-carboxamide], the IC50 in test [1] is above 10000 nM. Still for that read-out and setting: with `N[C@@H]1CCCC(F)(F)[C@@H]1NC(=O)c1cc(-c2cnc3cccnn23)c(Cc2ccccc2)s1` [Example 19, N-[(1R,6R)-6-amino-2,2-difluorocyclohexyl]-5-benzyl-4-(imidazo[1,2-b]pyridazin-3-yl)thiophene-2-carboxamide] the figure was above 10000 nM.

For the compound `CCc1sc(C(=O)N[C@@H]2[C@H](N)CCCC2(F)F)cc1-c1cnc2cc(C(F)(F)F)cnn12` [Example 24, N-[(1R,6R)-6-amino-2,2-difluorocyclohexyl]-5-ethyl-4-[7-(trifluoromethyl)imidazo[1,2-b]pyridazin-3-yl]thiophene-2-carboxamide], the IC50 at recombinant MARK3 enzyme stood at 140 nM. The same measure, in the same setting: to `N[C@H]1CCCC(F)(F)[C@@H]1NC(=O)c1nc(-c2cnc3ccccn23)c(Cl)s1` [Example 29, N-[(1R,6S)-6-Amino-2,2-difluorocyclohexyl]-5-chloro-4-(imidazo[1,2-a]pyridin-3-yl)-1,3-thiazole-2-carboxamide] belongs 720 nM.

Values taken from patent US8592425B2, “Imidazo[1,2-a]pyridines and imidazo[1,2-b]pyridazines as mark inhibitors” (Merck Sharp & Dohme Corp., priority 2009, dated 2013).
